For test [1], the system named is MMP2 gelatinase activity. Kind of test: Gelatin zymography of MMP2 activity in A375 cells. The class given is cell-based, human. To be noted: A375, 10 and 20 µM, gel zymography. On the procedure: A gel zymography assay can measure the ability of matrix metalloproteinases (MMPs) to digest their substrate gelatin present in the gel. Thus, the zymographic approach allows sensitive and quantifiable analysis of the activity of MMPs that can be recognized by their molecular weight. […] Both compounds 7 and 4 at 10 and 20 µM inhibited MMP2 gelatinase activity in the A375 melanoma cell line (Figure 6B).
A375 cells were cultured in the presence of 10 or 20 µM cryptotanshinone (4), salviolone (7), or 1 µM onconase (provided by Prof. G. Gotte), as a positive control, for 48 h and then they were serum starved for 24 h. The conditioned medium was collected and 10× concentrated with an Amicon Ultra-2 Centrifugal filter unit (Merck-Millipore, Milan, Italy). Protein concentrations were determined with Coomassie (Thermo Fisher Scientific, Waltham, MA, USA) and samples treated with a non-reducing sample buffer. To separate proteins, a 7.5% SDS-PAGE was performed. The gel contained 4 mg/mL of gelatin (Sigma-Aldrich, Milan, Italy) and was washed with 50 mM Tris-HCl pH 7.5, 5 mM CaCl2, and 1 μM ZnCl2 supplemented with 2.5% Triton X-100 (Serva Electrophoresis, Heidelberg, Germany). […] The gel was stained with 0.5% Coomassie Brilliant Blue R-250 in 20% ethanol/10% acetic acid, and the gelatinase activity was detected by evaluating the presence and intensity of clear bands on the blue background.

The test system of test [2] is ERK1/2. Kind of test: Immunoblot of total ERK1/2 in A375 cells. In kind it is cell-based, human. The following applies: A375, 20 µM, 72 h. The protocol:
A375 cells were seeded in 6 cm Petri dishes (190 300 cell/dish) and treated with different compounds at 10 or 20 μM. After 48- or 72-h treatment, the cells were scraped using warm 1× sample buffer (2% SDS, 10% glycerol, 50 mM Tris-HCl, 1.75% β-mercaptoethanol, and bromophenol blue) and boiled at 99 °C for 10 min. Total protein extracts were kept at −80 °C until use.
Protein extracts were analyzed with a 7.5 or 10% polyacrylamide SDS-PAGE and transferred to a polyvinylidene difluoride membrane (PVDF, Thermo Fisher Scientific, Waltham, MA, USA). The membranes were blocked at RT for 1 h with TBST buffer (10 mM Tris-HCl pH 7.5, 100 mM NaCl, 0.1% Tween20) containing 4% Milk (Formulat). […] Immuno-detection was carried out with an ECL kit (GE-Healthcare, Little Chalfont, UK), and the chemiluminescence signals were detected with ChemiDoc (Bio-Rad, Hercules, CA, USA).
On the technique in general: Immunoblotting shows a protein as a band on a membrane.

For `C[C@H]1COC2=C1C(=O)C(=O)c1c2ccc2c1CCCC2(C)C` [Compound 4, cryptotanshinone], the MMP2 gelatinase activity result in test [1] was “inhibited”.

Take `Cc1cc2ccc3c(c2cc(O)c1=O)CCCC3(C)C` [Compound 7, salviolone]: in test [2], the “total protein amount of ERK1/2” value is “increased”. Moreover, in test [1], the MMP2 gelatinase activity result was “inhibited”.
